Measured values from PubChem BioAssay AID248 (DTP/NCI, 2004).
“And” between values parts separate entries of the source, which are not always exact repeats. Equal entries are not always repeated. Toxic doses and inconclusive results are not listed. Cut-off read from the data, not from the text of the source: active = T/C of 150% or more; inactive = T/C below 125%.

Tested on: L1210 leukemia ip in BDF1 mice, survival T/C
Test: NCI In Vivo Anticancer Drug Screen. Data for tumor model L1210 Leukemia (intraperitoneal) in B6D2F1 (BDF1) mice
Conditions: endpoint: mean survival time, higher = longer survival
Summary of the method: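 Ratio derived from survival: compound-dosed mice over vehicle-dosed mice, all bearing a transplantable tumor.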

[1] = dose: 100.0 mg/kg/injection, schedule: Q01DX001 (ip), vehicle: saline
[2] = dose: 200.0 mg/kg/injection, schedule: Q01DX001 (ip), vehicle: saline
[3] = dose: 400.0 mg/kg/injection, schedule: Q01DX001 (ip), vehicle: saline
[4] = dose: 100.0 mg/kg/injection, schedule: Q01DX001 (ip), vehicle: Klucel (hydroxypropylcellulose) (HPC)
[5] = dose: 100.0 mg/kg/injection, schedule: Q04DX003 (ip), vehicle: Klucel (hydroxypropylcellulose) (HPC)
[6] = dose: 200.0 mg/kg/injection, schedule: Q01DX001 (ip), vehicle: Klucel (hydroxypropylcellulose) (HPC)
[7] = dose: 200.0 mg/kg/injection, schedule: Q04DX003 (ip), vehicle: Klucel (hydroxypropylcellulose) (HPC)
[8] = dose: 400.0 mg/kg/injection, schedule: Q04DX003 (ip), vehicle: Klucel (hydroxypropylcellulose) (HPC)
[9] = dose: 12.5 mg/kg/injection, schedule: Q01DX009 (ip), vehicle: saline
[10] = dose: 100.0 mg/kg/injection, schedule: Q04DX003 (ip), vehicle: saline
[11] = dose: 100.0 mg/kg/injection, schedule: Q01DX001 (ip), vehicle: water
[12] = dose: 200.0 mg/kg/injection, schedule: Q01DX001 (ip), vehicle: water
[13] = dose: 400.0 mg/kg/injection, schedule: Q01DX001 (ip), vehicle: Klucel (hydroxypropylcellulose) (HPC)

Measured: T/C

COc1ccccc1[As](=O)(O)CC(O)COc1ccccc1 (configuration not stated)
inactive: dose: 25.0 mg/kg/injection, schedule: Q04DX003 (ip), vehicle: saline with Tween-80 91 % of control

O=C(O)CN1C(=O)CNC12CCCC2
inactive: [1] 100 % of control | [2] 108 % of control | [3] 93 % of control

O=C(Cc1c(F)c(F)c(F)c(F)c1F)Nc1ccc(-c2nc3ccccc3s2)cc1
inactive: [4] 87 % of control | dose: 100.0 mg/kg/injection, schedule: Q01DX009 (ip), vehicle: Klucel (hydroxypropylcellulose) (HPC) 115 % of control | dose: 100.0 mg/kg/injection, schedule: Q04DX002 (ip), vehicle: Klucel (hydroxypropylcellulose) (HPC) 104 % of control and 115 % of control | [5] 95 % of control | [6] 90 % of control | dose: 200.0 mg/kg/injection, schedule: Q01DX009 (ip), vehicle: Klucel (hydroxypropylcellulose) (HPC) 105 % of control | dose: 200.0 mg/kg/injection, schedule: Q04DX002 (ip), vehicle: Klucel (hydroxypropylcellulose) (HPC) 93 % of control and 95 % of control | [7] 97 % of control | dose: 400.0 mg/kg/injection, schedule: Q04DX002 (ip), vehicle: Klucel (hydroxypropylcellulose) (HPC) 95 % of control and 96 % of control | [8] 97 % of control

CCCCOC(CN)C(Cl)(Cl)Cl (configuration not stated)
inactive: dose: 6.0 mg/kg/injection, schedule: Q04DX002 (ip), vehicle: saline 96 % of control and 97 % of control | dose: 12.0 mg/kg/injection, schedule: Q04DX002 (ip), vehicle: saline 104 % of control and 87 % of control | [9] 97 % of control and 98 % of control | dose: 200.0 mg/kg/injection, schedule: Q01DX009 (ip), vehicle: saline 96 % of control and 101 % of control | dose: 200.0 mg/kg/injection, schedule: Q04DX002 (ip), vehicle: saline 97 % of control

Cc1cc(C)c2ccc([S+](C)C)c-2c(C)c1
inactive: dose: 5.0 mg/kg/injection, schedule: Q01DX001 (ip), vehicle: carboxymethylcellulose (CMC) 105 % of control | dose: 10.0 mg/kg/injection, schedule: Q01DX001 (ip), vehicle: carboxymethylcellulose (CMC) 100 % of control | dose: 20.0 mg/kg/injection, schedule: Q01DX001 (ip), vehicle: carboxymethylcellulose (CMC) 105 % of control | dose: 40.0 mg/kg/injection, schedule: Q01DX001 (ip), vehicle: carboxymethylcellulose (CMC) 108 % of control | dose: 80.0 mg/kg/injection, schedule: Q01DX001 (ip), vehicle: carboxymethylcellulose (CMC) 97 % of control

O=C1C=C(Nc2ccc(O)cc2)c2ccccc2C1=O
inactive: dose: 3.12 mg/kg/injection, schedule: Q01DX009 (ip), vehicle: saline 107 % of control | dose: 6.25 mg/kg/injection, schedule: Q01DX009 (ip), vehicle: saline 102 % of control | [9] 103 % of control | dose: 25.0 mg/kg/injection, schedule: Q01DX009 (ip), vehicle: saline 91 % of control | dose: 50.0 mg/kg/injection, schedule: Q04DX003 (ip), vehicle: saline 103 % of control | dose: 75.0 mg/kg/injection, schedule: Q01DX001 (ip), vehicle: carboxymethylcellulose (CMC) 93 % of control | [10] 95 % of control | dose: 150.0 mg/kg/injection, schedule: Q01DX001 (ip), vehicle: carboxymethylcellulose (CMC) 100 % of control | dose: 300.0 mg/kg/injection, schedule: Q01DX001 (ip), vehicle: carboxymethylcellulose (CMC) 90 % of control

CCC(C)NP(=O)(OC1CC(C)(C)N(O)C(C)(C)C1)OC1CC(C)(C)N(O)C(C)(C)C1 (configuration not stated)
inactive: dose: 50.0 mg/kg/injection, schedule: Q01DX001 (ip), vehicle: water 98 % of control | [11] 98 % of control | [12] 94 % of control

c1ccc(CCCCc2ccc(CCCCc3ccccc3)cc2)cc1
inactive: [1] 101 % of control | [2] 93 % of control | [3] 93 % of control

CCCCCSc1nccc(N)n1
inactive: dose: 100.0 mg/kg/injection, schedule: Q01DX001 (ip), vehicle: saline with Tween-80 97 % of control | dose: 200.0 mg/kg/injection, schedule: Q01DX001 (ip), vehicle: saline with Tween-80 103 % of control

CN(C)CCC(=O)c1ccc(-c2ccccc2)cc1
inactive: [5] 97 % of control | [7] 97 % of control

CC(C)(C)c1ccc(OS(=O)(=O)c2ccccc2[N+](=O)[O-])cc1
inactive: [4] 102 % of control | [6] 98 % of control | [13] 95 % of control

O=C(Cl)C(c1ccccc1)C1(C(Cl)(Cl)Cl)CCCCC1 (configuration not stated)
inactive: dose: 55.0 mg/kg/injection, schedule: Q01DX Z (ip), vehicle: methylcellulose (MC) 110 % of control | dose: 83.0 mg/kg/injection, schedule: Q01DX Z (ip), vehicle: methylcellulose (MC) 104 % of control | dose: 125.0 mg/kg/injection, schedule: Q01DX Z (ip), vehicle: methylcellulose (MC) 98 % of control

COc1ccc(CC(=O)N(CCNS(=O)(=O)c2ccc(C)cc2)CCOC(C)=O)cc1
inactive: [11] 104 % of control | [12] 107 % of control | dose: 400.0 mg/kg/injection, schedule: Q01DX001 (ip), vehicle: water 96 % of control

O=P(CCCCl)(OCCCCl)OCCCCl
inactive: [10] 104 % of control | dose: 200.0 mg/kg/injection, schedule: Q04DX003 (ip), vehicle: saline 114 % of control | dose: 400.0 mg/kg/injection, schedule: Q04DX003 (ip), vehicle: saline 96 % of control

N=C1SC(c2ccccc2)c2ccccc21 (configuration not stated)
inactive: [4] 98 % of control | [6] 93 % of control | [13] 95 % of control

O=C(Nc1c(Br)cc2c(c1Br)Cc1cc(Br)ccc1-2)C(F)(F)F
inactive: [1] 94 % of control | [2] 101 % of control | [3] 106 % of control

CC(=O)N/N=C/c1ccc([N+](=O)[O-])s1
inactive: dose: 100.0 mg/kg/injection, schedule: Q04DX003 (ip), vehicle: saline with Tween-80 94 % of control

Clc1ccc(N=Cc2ccc(C=Nc3ccc(Cl)c(Cl)c3)cc2)cc1Cl
inactive: [5] 97 % of control | dose: 200.0 mg/kg/injection, schedule: Q01DX009 (ip), vehicle: saline sonified 89 % of control | [7] 89 % of control | [8] 96 % of control

O=C(NCCBr)Nc1ccc2c(c1)CCCC2
inactive: [5] 102 % of control | [7] 93 % of control | [8] 93 % of control

Nc1cc(Cl)ccc1Cl
inactive: dose: 100.0 mg/kg/injection, schedule: Q04DX002 (ip), vehicle: gum acacia 91 % of control | dose: 200.0 mg/kg/injection, schedule: Q04DX002 (ip), vehicle: gum acacia 95 % of control | dose: 400.0 mg/kg/injection, schedule: Q04DX002 (ip), vehicle: gum acacia 95 % of control

Cc1cccc(Cl)c1NC(=O)CC#N
inactive: dose: 100.0 mg/kg/injection, schedule: Q01DX009 (ip), vehicle: saline with Tween-80 97 % of control | dose: 100.0 mg/kg/injection, schedule: Q04DX002 (ip), vehicle: saline with Tween-80 97 % of control | dose: 200.0 mg/kg/injection, schedule: Q01DX009 (ip), vehicle: saline with Tween-80 95 % of control | dose: 200.0 mg/kg/injection, schedule: Q04DX002 (ip), vehicle: saline with Tween-80 97 % of control | dose: 400.0 mg/kg/injection, schedule: Q01DX009 (ip), vehicle: saline with Tween-80 100 % of control | dose: 400.0 mg/kg/injection, schedule: Q04DX002 (ip), vehicle: saline with Tween-80 97 % of control

Cc1ccc2c(c1)N(CCCN1CC[N+](C)(C)CC1)c1ccccc1S2
inactive: dose: 10.0 mg/kg/injection, schedule: Q01DX001 (ip), vehicle: saline 101 % of control | dose: 20.0 mg/kg/injection, schedule: Q01DX001 (ip), vehicle: saline 95 % of control | dose: 40.0 mg/kg/injection, schedule: Q01DX001 (ip), vehicle: saline 98 % of control | dose: 80.0 mg/kg/injection, schedule: Q01DX001 (ip), vehicle: saline 98 % of control
